# Measured values reported in patent US10753935B2, “Prognostic method and kits useful in said method” (Zelda Therapeutics Operations Pty Ltd, priority 2016, dated 2020).
# How the values were obtained:
# [1] = test system: HER2-HER2 dimers; experiment: In situ proximity ligation assay of HER2-HER2 dimers in HCC1954 cells; format: cell-based, human; conditions: THC treatment
# Experimental: FIG. 6. HER2-HER2 dimer expression in HCC1954 cells. Representative images of the PLA experiments, in response to the indicated treatments.
# (§1) Cells were grown on glass coverslips and fixed in 4% paraformaldehyde, washed with PBS containing 20 mM glycine, permeabilized with the same buffer containing 0.05% Triton® X-100, and washed successively with PBS. HER2-CB2R heteromers were detected using the Duolink in situ Probemarker kit (Olink, Bioscience, Uppsala, Sweden). After 1 h of incubation at 37° C. with the blocking solution in a preheated humidity chamber, cells were incubated overnight in the antibody dilution medium with a mixture of equal amounts of rabbit anti-CB2 antibody (1:50, Cayman Chemical, Ann Arbor, Mich.) directly linked to a plus PLA probe, and rabbit anti-HER2 antibody (1:50, Santa Cruz Biotechnology, Santa Cruz, Calif., US) directly linked to a minus PLA probe. […] Amplification was done with the Duolink II detection reagents red kit, which contains fluorescence nucleotides. […] PLA requires that both receptors be close enough to allow the two different antibody-DNA probes to be able to ligate (<17 nm) ((Soderberg et al., (2008), Methods., 45: 227-232; Trifilieff et al., (2011), BioTechniques, 51: 111-118). If the receptors are within sufficient proximity, a punctate fluorescent signal can be detected by confocal microscopy.
# [2] = biological target: T1, HER2-CB2 heteromers (Homo sapiens, UniProt P34972); experiment: Co-immunoprecipitation of HER2 and CB2-HA in BT474 cells; format: cell-based; conditions: BT474 cells transfected with CB2-HA; 3 μM THC for 4 h
# Experimental: (§2) FIG. 3. Western blot analysis of HER2 and CB2 in the indicated cell lines. Cells were transfected with a CB2-HA encoding plasmid and treated with THC for 4 h. HER2 was then immune-precipitated with an anti-HER2 antibody, and blots were developed with anti-HA antibodies.
# (§3) HCC1954 and BT474 cells were transiently transfected with pcDNA3-HA-hCB2 or the corresponding empty vector (pcDNA3), using Fugene HD Transfection Reagent (Promega, Madison, Wis.). 48 h after transfection, cells were treated with 3 μM THC or the corresponding vehicle (DMSO) for 4 h, and lysed using a specific buffer for co-immunoprecipitation (40 mM Hepes pH 7.5, 120 mM NaCl, 1 mM EDTA, 10 mM sodium pyrophosphate, 10 mM sodium glycerophosphate, 50 mM sodium fluoride, 0.5 mM sodium orthovanadate, 0.3% CHAPS and supplemented with 1 mM benzamidine and 0.1 mM PMSF in fresh). Cell lysates (1 mg) were immunoprecipitated using 5 μg of anti-ErbB2 antibody (Neu C-18, Santa Cruz Biotechnology, Santa Cruz, Calif., US) covalently coupled to 5 μL protein G-sepharose. After immunoprecipitation, proteins were separated by SDS-10% polyacrylamide reducing gels and transferred to PVDF membranes. […] Bound antibodies were detected with a donkey anti-rabbit immunoglobulin G (IgG) peroxidase-labeled antibody (GE Healthcare, UK). […]
# [3] = biological target: T1, HER2-CB2 heteromers; experiment: Co-immunoprecipitation of HER2 and CB2-HA in HCC1954 cells; format: cell-based; set-up: HER2-CB2 heteromer expression in HCC1954 cells; endogenous in cells; host or cells: HCC1954; conditions: HCC1954 cells transfected with CB2-HA; 3 μM THC for 4 h
# Experimental: as §2, §3
# [4] = biological target: T1, HER2-CB2 heteromers; experiment: In situ proximity ligation assay of HER2-CB2 heteromers in HCC1954 cells; format: cell-based; set-up: HER2-CB2 heteromer expression in HCC1954 cells; endogenous in cells; host or cells: HCC1954; conditions: THC treatment
# Experimental: HER2-CB2 heteromer expression in HCC1954 cells. Representative images of the PLA experiments, in response to the indicated treatments.
# Cells were grown on glass coverslips and fixed in 4% paraformaldehyde, washed with PBS containing 20 mM glycine, permeabilized with the same buffer containing 0.05% Triton® X-100, and washed successively with PBS. HER2-CB2R heteromers were detected using the Duolink in situ Probemarker kit (Olink, Bioscience, Uppsala, Sweden). After 1 h of incubation at 37° C. with the blocking solution in a preheated humidity chamber, cells were incubated overnight in the antibody dilution medium with a mixture of equal amounts of rabbit anti-CB2 antibody (1:50, Cayman Chemical, Ann Arbor, Mich.) directly linked to a plus PLA probe, and rabbit anti-HER2 antibody (1:50, Santa Cruz Biotechnology, Santa Cruz, Calif., US) directly linked to a minus PLA probe. Cells were washed with wash buffer A at room temperature and incubated in a preheated humidity chamber for 30 min at 37° C. with the ligation solution (Duolink® II ligation stock, 1:5, and Duolink II ligase, 1:40) to induce annealing and ligation of the two DNA probes. Amplification was done with the Duolink II detection reagents red kit, which contains fluorescence nucleotides. After exhaustive washing at room temperature with wash buffer B, cells were mounted using mounting medium with DAPI. […]
# [5] = biological target: T1, HER2-CB2 heteromers; experiment: PLA and BRET assays of HER2-CB2 heteromers in BT474 cells; format: cell-based; conditions: THC at concentrations that produce anti-tumor responses, previously reported by the applicants
# Experimental: (§4) As discussed in Example 1, we observed these effects using Proximity Ligation assays (PLAs) and Bioluminescence Resonance Energy Transfer (BRET) assays.
# as §1
# [6] = test system: HER2; experiment: HER2 degradation in BT474 cells; format: cell-based, human; conditions: THC treatment, previously observed
# From the text: as §4
# (§5) We have now confirmed this observation by Western blot in HCC1954 cells (FIG. 5).
# [7] = test system: HER2; experiment: Western blot of HER2 in HCC1954 cells; format: cell-based, human; conditions: THC treatment
# Experimental: FIG. 5. Protein expression in HCC1954 cells. Protein expression analysis by Western blot of total and phosphorylated (i.e., activated) HER2 in response to THC.
# as §5
# HCC1954 cells were treated with RIPA buffer (50 mM Tris, 150 mM NaCl, 1% NP-40, 0.5% sodium deoxycholate, and 0.1% sodium dodecyl sulfate), containing a cocktail of protease inhibitors (pepstatin, leupeptin, aprotinin, quimostatin, antipain, and phenylmethylsulfonyl fluoride) and phosphatase inhibitors (Na3VO4 and NaF; Sigma Chemical Co., St. Louis, Mo.). Proteins separated by sodium dodecyl sulfate-10% polyacrylamide reducing gels were transferred to polyvinylidene difluoride membranes (Bio-Rad Laboratories, Hercules, Calif.). After blocking with 5% skim milk and 1% bovine serum albumin, membranes were incubated with the anti-ErbB2 antiserum (Santa Cruz Biotechnology, Santa Cruz, Calif.) diluted 1:500 for 3 h at room temperature. […] A chemiluminescence detection system (Amersham Pharmacia Biotech, Piscataway, N.J.) was used to reveal peroxidase. Controls were carried out with an anti-actin monoclonal antibody (MAb; Boehringer Mannheim, Indianapolis, Ind.) diluted 1:5,000 followed by an anti-mouse IgG peroxidase-labeled antibody diluted 1:4,000 (Zymed).
# T1 sequence (P34972 whole entry, one chain of several): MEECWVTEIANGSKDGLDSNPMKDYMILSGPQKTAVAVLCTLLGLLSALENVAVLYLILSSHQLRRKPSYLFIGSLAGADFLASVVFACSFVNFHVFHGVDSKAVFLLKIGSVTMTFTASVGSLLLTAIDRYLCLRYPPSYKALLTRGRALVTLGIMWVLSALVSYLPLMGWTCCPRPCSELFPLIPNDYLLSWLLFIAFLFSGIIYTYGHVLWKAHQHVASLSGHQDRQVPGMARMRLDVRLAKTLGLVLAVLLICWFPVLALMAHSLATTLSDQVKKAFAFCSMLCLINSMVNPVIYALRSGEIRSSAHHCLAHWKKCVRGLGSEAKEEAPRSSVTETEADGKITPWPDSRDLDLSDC
structure (smiles),measurement,setting,value
"CCCCCc1cc(O)c2c(c1)OC(C)(C)[C@@H]1CCC(C)=C[C@@H]21 [THC, Δ^9-tetrahydrocannabinol]",effect on HER2-HER2 dimers (PLA),[1],disrupts not only HER2-CB2 but also HER2-HER2 dimers
same,effect on HER2-CB2 heteromers (co-IP),[2],disrupts HER2-CB2 heteromers
same,effect on HER2-CB2 heteromers (co-IP),[3],disrupts HER2-CB2 heteromers
same,effect on HER2-CB2 heteromers (PLA),[4],breaks the heteromers by acting on CB2
same,"effect on HER2-CB2 heteromers (PLA, BRET)",[5],disrupts HER2-CB2 heteromers
same,effect on HER2 protein level,[6],degradation of HER2
same,effect on HER2 protein level (Western blot),[7],degradation of HER2
